{"source": "patent US10071158B2", "about": "“Combination of the application of antibodies for immunostimulation together with glucocorticoids” (Lindis Biotech GmbH, priority 2005, dated 2018)", "key": {"[1]": {"system": "mononuclear cells of the peripheral blood (PBMC)", "test": "Release of IFN-γ by PBMC after stimulation with anti-EpCAM x anti-CD3 antibody without/with HCT8 tumour cells (ELISA)", "assay_type": "cell-based, human", "details": "dexamethasone 0.1 μg/ml", "protocol": "Mononuclear cells were extracted from the peripheral blood of a healthy volunteer by means of centrifugation over Ficoll (density 1.068 g/cm^3). To this end, venous heparinised blood was stratified over Ficoll and centrifuged at 2000 rpm for 20 min. The cell layer located above the Ficoll was pipetted off after centrifugation and was washed with PBS.\nFor the purpose of stimulation, the PBMC were used at a concentration of 1×10^6/ml. The stimulation of the PBMC was effected with an intact trifunctional bispecific antibody either of the specificity anti-EpCAM x anti-CD3 at a concentration of 100 μg/ml or of the specificity anti-HER2/neu x anti-CD3 at a concentration of 1 mg/ml. The stimulation was carried out for 24 h by incubation at 37 ° C. The stimulation was effected in each instance without tumour cells or in the presence of 5×10^4 HCT8 tumour cells (relative to ATCC; EpCAM-positive) per ml.\nAfter the stimulation the determination of the concentrations of the cytokines IL-6, IL-10, TNF-α and IFN-γ was undertaken in the supernatant on plates with 24 recesses in each instance by means of an ELISA. In each instance duplicate measurements were carried out. The ELISAs were undertaken by means of standardised kits produced by R&D Systems, in accordance with the manufacturer's instructions."}, "HCT8 tumour cells [2]": {"system": "HCT8 tumour cells", "test": "Cytotoxicity assay with fluorescence-marked HCT8 tumour cells, PBMC of healthy test subjects and tumour patients (FIG. 10)", "assay_type": "cell-based, human", "description": "FIGS. 10A to 10C represent the mean values of the measurements carried out in respect of three healthy test subjects, whereas FIG. 10D represents the mean values of the measurements carried out in respect of six patients with gastrointestinal carcinoma. In the experiments a stimulation was effected with trifunctional bispecific antibodies with the specificity anti-EpCAM x anti-CD3 at various concentrations amounting to 10 ng/ml, 100 ng/ml and 1000 ng/ml. The respective concentration of the antibody that has been used is specified in FIGS. 10A to 10D. The concentration of the PBMC amounted to 10^6 cells/ml, that of the HCT8 cells amounted to 5×10^4 cells/ml. […] On the y-axis the percentage cytotoxicity has been plotted; on the x-axis the respective experimental assay of the PBMC has been plotted, with unstimulated PBMC serving by way of control (PBMC)."}, "[3]": {"system": "mononuclear cells of the peripheral blood (PBMC)", "test": "Release of IL-6 by PBMC after stimulation with anti-EpCAM x anti-CD3 antibody without/with HCT8 tumour cells (ELISA)", "assay_type": "cell-based, human", "details": "antibody-stimulated PBMC with HCT8; dexamethasone 0.01 μg/ml to 10 μg/ml (FIG. 1B)", "description": "FIG. 1A represents the release of IL-6, the IL-6 concentration in pg/ml being plotted on the y-axis. On the x-axis the respective stimulation of the PBMC has been plotted, with unstimulated PBMC serving by way of control (bar “PBMC”). In this connection, E signifies in each instance the stimulation with 100 μg/ml trifunctional bispecific antibody with the specificity anti-EpCAM x anti-CD3. […] In the experiment according to FIG. 1A the release of IL-6 from PBMC is investigated after stimulation without contact with EpCAM-positive tumour cells (=target cells). The stimulation without EpCAM-positive tumour cells corresponds to the non-specific release of cytokine, which is independent of the antigen binding. Release is accordingly effected systemically by the totality of the PBMC.\nThis procedure of stimulation with EpCAM-positive tumour cells corresponds to the situation of the release of IL-6 by the PBMC at the site of antigen binding. […] In the clinical use of the immunostimulating antibody together with the glucocorticoid the high quantity of IL-6 is released only by a few PBMC that are directly involved in the specific action. […]\n(§1) FIGS. 14 to 16 show graphic representations of the results of the release of various cytokines in tumour patients by PBMC. […] The release of the same cytokines was measured likewise. […]"}, "HCT8 tumour cells [4]": {"system": "HCT8 tumour cells", "test": "Two-hour cytotoxicity assay with fluorescence-marked (BCECF-AM) HCT8 tumour cells, stimulated PBMC (FIG. 5)", "assay_type": "cell-based, human", "design": "effect on specific percentage cytotoxicity of stimulated PBMC: dose or concentration left out as unconfirmed", "description": "FIG. 5A-5D represents in diagrams the results of the measurement of the specific percentage cytotoxicity, which was determined in a two-hour cytotoxicity assay with fluorescence-marked HCT8 tumour cells. In FIGS. 5A to 5D the specific percentage cytotoxicity against HCT8 has been plotted as a function of the ratio of effector cells to target cells (E/T), the cytotoxicity test having been carried out in each instance in the case of a ratio of the effector cells to the target cells of 40:1, 20:1, 10:1, 5:1 and 2.5:1.\nWith the aid of a cytotoxicity test the influence of glucocorticoid on the T-cell toxicity was investigated. The extraction of the PBMC and the stimulation thereof were carried out in accordance with the above Example 1.\nThe measurement of cytotoxicity was undertaken with the aid of a fluorescence test using the dyestuff BCECF-AM. The measurement was undertaken by means of 2 h release technology corresponding to the procedure in Kolber et al. (1988) J. Immunol. Meth. 108: 255-264."}, "[5]": {"details": "after i.v. injection; cited from earlier work"}, "[6]": {"system": "mononuclear cells of the peripheral blood (PBMC)", "test": "Release of TNF-α by PBMC after stimulation with anti-EpCAM x anti-CD3 antibody without/with HCT8 tumour cells (ELISA)", "assay_type": "cell-based, human", "details": "without HCT8; dexamethasone 0.1 μg/ml (FIG. 2C)", "text": "FIG. 2A-2C represents in diagrams the results of the release of tumour necrosis factor α (TNF-α) after stimulation with trifunctional bispecific antibody of the specificity anti-EpCAM x anti-CD3 without and in the presence of EpCAM-positive tumour cells.\nThis stimulation without target cells corresponds, in turn, as already stated with respect to FIG. 1A, to the systemic, non-specific release of cytokine, which arises independently of the antibody/antigen interaction. This systemic release of TNF-α is effected by the totality of the PBMC population. […]\nFIG. 2B represents, in a diagram similar to FIG. 1B, the release of TNF-α from PBMC after antibody stimulation with contact with EpCAM-positive tumour cells, the TNF-α concentration in pg/ml being plotted, here too, on the y-axis. […] In the case of stimulation with contact with EpCAM-positive tumour cells, in comparison with the stimulation without contact with target cells, in connection with the release of TNF-α absolutely higher values are also measured, which, however, as already stated above with respect to the release of IL-6 in connection with FIG. 1B, has its origin in the specific immunological action at the site of the antibody/antigen interaction. […]\nas §1"}}, "note": "“Also recorded” adds a separate entry of the source.", "data": [{"smiles": "C[C@@H]1C[C@H]2[C@@H]3CCC4=CC(=O)C=C[C@]4(C)[C@@]3(F)[C@@H](O)C[C@]2(C)[C@@]1(O)C(=O)CO", "note": "[dexamethasone]", "values": [{"measurement": "release of IFN-γ", "setting": "[1]", "result": "under 3000 pg/ml"}, {"measurement": "inhibition of the specific percentage cytotoxicity", "setting": "HCT8 tumour cells [2]; antibody 10 ng/ml, no contact with HCT8, dexamethasone, healthy test subjects", "result": "about 5 percentage points"}, {"measurement": "inhibition of the specific percentage cytotoxicity", "setting": "HCT8 tumour cells [2]; antibody 10 ng/ml, with HCT8, dexamethasone up to 1.0, healthy test subjects (FIG. 10A)", "result": "approximately 15 percentage points"}, {"measurement": "specific percentage cytotoxicity", "setting": "HCT8 tumour cells [2]; antibody 10 ng/ml, with HCT8, with dexamethasone, healthy test subjects", "result": "~41", "unit": "%"}, {"measurement": "inhibition of the cytotoxicity", "setting": "HCT8 tumour cells [2]; antibody 100 ng/ml, dexamethasone, patients with gastrointestinal tumours (FIG. 10D)", "result": "approximately 27 percentage points"}, {"measurement": "inhibition of the specific percentage cytotoxicity", "setting": "HCT8 tumour cells [2]; antibody 100 ng/ml, with HCT8, dexamethasone up to 1.0, healthy test subjects (FIG. 10B)", "result": "about 30 percentage points"}, {"measurement": "specific percentage cytotoxicity", "setting": "HCT8 tumour cells [2]; antibody 100 ng/ml, with HCT8, with dexamethasone, healthy test subjects", "result": "~50", "unit": "%"}, {"measurement": "cytotoxicity", "setting": "HCT8 tumour cells [2]; antibody 100 ng/ml, with dexamethasone, patients with gastrointestinal tumours", "result": "~51", "unit": "%"}, {"measurement": "inhibition of the cytotoxicity", "setting": "HCT8 tumour cells [2]; antibody 100 ng/ml, without contact with HCT8, dexamethasone, healthy test subjects", "result": "approximately 10 percentage points"}, {"measurement": "inhibition of the specific percentage cytotoxicity", "setting": "HCT8 tumour cells [2]; antibody 1000 ng/ml, with HCT8, dexamethasone up to 1.0, healthy test subjects (FIG. 10C)", "result": "about 20 percentage points"}, {"measurement": "specific percentage cytotoxicity", "setting": "HCT8 tumour cells [2]; antibody 1000 ng/ml, with HCT8, with dexamethasone, healthy test subjects", "result": "~67", "unit": "%"}, {"measurement": "inhibition of the cytotoxicity", "setting": "HCT8 tumour cells [2]; antibody 1000 ng/ml, without contact with HCT8, dexamethasone, healthy test subjects", "result": "about 2 percentage points"}, {"measurement": "release of IL-6 in the supernatant", "setting": "[3]", "result": "above 5000 pg/ml"}, {"measurement": "effect on the cytotoxicity of stimulated PBMC", "setting": "HCT8 tumour cells [4]; dexamethasone 0.01 μg/ml", "result": "no effect"}, {"measurement": "percentage cytotoxicity", "setting": "HCT8 tumour cells [4]; dexamethasone 0.1 μg/ml to 10 μg/ml, stimulation in the presence of HCT8, E/T 40:1", "result": "maintained constant at a high level"}, {"measurement": "inhibition of the specific percentage cytotoxicity", "setting": "HCT8 tumour cells [4]; dexamethasone 0.1 μg/ml, with or without HCT8 during stimulation (FIG. 5B)", "result": "about 50 percentage points"}, {"measurement": "inhibition of the percentage specific cytotoxicity", "setting": "HCT8 tumour cells [4]; dexamethasone 1 μg/ml, E/T 20:1, stimulation in the absence of HCT8", "result": "distinctly greater inhibition"}, {"measurement": "inhibition of the specific percentage cytotoxicity compared with 0.1 μg/ml", "setting": "HCT8 tumour cells [4]; dexamethasone 1 μg/ml, stimulation in the presence of HCT8 (FIG. 5C)", "result": "roughly the same level"}, {"measurement": "cytotoxicity values in relation to lower dexamethasone concentrations", "setting": "HCT8 tumour cells [4]; dexamethasone 10 μg/ml, stimulation in the absence of HCT8", "result": "declined further"}, {"measurement": "percentage cytotoxicity", "setting": "HCT8 tumour cells [4]; dexamethasone 10 μg/ml, stimulation in the presence of HCT8, E/T 20:1 (FIG. 5D)", "result": 30, "unit": "%"}, {"measurement": "specific percentage cytotoxicity", "setting": "HCT8 tumour cells [4]; dexamethasone 10 μg/ml, stimulation in the presence of HCT8, E/T twice as large (40:1)", "result": "about 60%"}, {"measurement": "effect on specific percentage cytotoxicity of stimulated PBMC", "setting": "HCT8 tumour cells [4]; dexamethasone (FIG. 5A)", "result": "no effect; also recorded: no inhibition"}, {"measurement": "effect on cytotoxicity", "setting": "HCT8 tumour cells [4]; dexamethasone starting from 0.1 μg/ml, independent of HCT8 during stimulation", "result": "significant reducing; also recorded: distinct reducing"}, {"measurement": "percentage cytotoxicity as a function of dexamethasone concentration", "setting": "HCT8 tumour cells [4]; stimulation of PBMC without HCT8", "result": "declines further"}, {"measurement": "maximum plasma concentrations attained", "setting": "[5]", "result": "within a few minutes"}, {"measurement": "non-specific secretion of TNF-α, % of value with antibody without dexamethasone", "setting": "[6]", "result": "~20", "unit": "%"}]}]}
